The target in the assay is T1, Cbl-b (Homo sapiens, UniProt Q13191).
T1 construct: Cbl-b-HiBit KI Jurkat Cells were purchased from Promega; host or cells: Cbl-b-HiBiT knock-in Jurkat cells
The experiment in a line: Cbl-b Degradation Method B (Nano-Glo HiBiT lytic detection). Conditions: Cbl-b-HiBit KI Jurkat Cells, incubated at least 6-24 hours; for DC50: half maximal degradation, read-out: Cbl-b Degredation Method B IC50; for Dmax: maximum degradation observed, read-out: Cbl-b Degredation Method B Dmax (%). The format is cell-based. The method, boiled down: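 Cbl-b-HiBiT knock-in Jurkat cells (20,000/well) were treated after ~24 h plating with an 11-point 1:3 series for 6-24 h at 37° C. Remaining Cbl-b measured by Nano-Glo HiBiT lytic luminescence. DC50 and Dmax expressed as % of control.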
(The HiBiT peptide binds its large partner to form an active luciferase.)

By Dmax is commonly meant the largest share of the target that was removed.

Molecules are shown by their SMILES.

T1 sequence (Q13191 whole entry): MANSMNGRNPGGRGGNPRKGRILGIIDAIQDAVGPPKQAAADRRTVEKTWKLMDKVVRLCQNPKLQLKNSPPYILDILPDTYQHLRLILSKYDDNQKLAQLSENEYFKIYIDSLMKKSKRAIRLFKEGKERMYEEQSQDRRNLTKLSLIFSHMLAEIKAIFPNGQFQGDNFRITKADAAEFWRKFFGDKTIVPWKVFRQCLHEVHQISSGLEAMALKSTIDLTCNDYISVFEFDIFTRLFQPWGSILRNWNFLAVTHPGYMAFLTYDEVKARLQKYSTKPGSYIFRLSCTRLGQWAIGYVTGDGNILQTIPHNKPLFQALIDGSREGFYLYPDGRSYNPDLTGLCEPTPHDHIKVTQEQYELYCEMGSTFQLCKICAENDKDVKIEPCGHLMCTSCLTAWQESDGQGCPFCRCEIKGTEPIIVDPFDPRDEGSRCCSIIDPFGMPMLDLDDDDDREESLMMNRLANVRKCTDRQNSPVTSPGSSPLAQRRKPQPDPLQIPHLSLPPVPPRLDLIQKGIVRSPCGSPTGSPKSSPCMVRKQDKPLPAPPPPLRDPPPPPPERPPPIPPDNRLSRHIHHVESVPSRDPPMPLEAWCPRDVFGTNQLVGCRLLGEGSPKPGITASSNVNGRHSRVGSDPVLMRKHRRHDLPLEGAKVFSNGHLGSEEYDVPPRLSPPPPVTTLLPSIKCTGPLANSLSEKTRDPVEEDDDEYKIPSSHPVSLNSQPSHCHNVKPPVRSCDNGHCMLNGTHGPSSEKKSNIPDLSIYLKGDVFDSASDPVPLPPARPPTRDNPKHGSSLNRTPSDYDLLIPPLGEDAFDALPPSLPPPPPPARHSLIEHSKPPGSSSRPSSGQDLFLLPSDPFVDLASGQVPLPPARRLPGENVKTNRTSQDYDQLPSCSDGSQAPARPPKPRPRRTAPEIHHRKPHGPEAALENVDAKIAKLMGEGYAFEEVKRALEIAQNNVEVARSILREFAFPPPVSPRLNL

For `Cn1cnnc1CC1(c2cccc(N3Cc4c(cc(CN5CCC6(CC5)CN(c5cccc7c5CN(C5CCC(=O)NC5=O)C7=O)C6)cc4C(F)(F)F)C3=O)c2)COC1` (stereo not drawn) [Example 42, 3-[4-(7-{[2-(3-{3-[(4-methyl-4H-1,2,4-triazol-3-yl)methyl]oxetan-3-yl}phenyl)-3-oxo-7-(trifluoromethyl)-2,3-dihydro-1H-isoindol-5-yl]methyl}-2,7-diazaspiro[3.5]nonan-2-yl)-1-oxo-2,3-dihydro-1H-isoindol-2-yl]piperidine-2,6-dione], the DC50 was above 500 nM.
For the compound `Cn1cnnc1C[C@]1(c2cccc(N3Cc4c(cc(CN5CCN(C[C@H]6CC[C@H](OC7CCN(c8cccc9c8n(C)c(=O)n9C8CCC(=O)NC8=O)CC7)CC6)CC5(C)C)cc4C(F)(F)F)C3=O)c2)C[C@H](C#N)C1` (stereo partly drawn) [Example 274, (1r,3r)-3-(3-{6-[(2,2-dimethyl-4-{[(1r,4r)-4-({1-[1-(2,6-dioxopiperidin-3-yl)-3-methyl-2-oxo-2,3-dihydro-1H-1,3-benzodiazol-4-yl]piperidin-4-yl}oxy)cyclohexyl]methyl}piperazin-1-yl)methyl]-1-oxo-4-(trifluoromethyl)-2,3-dihydro-1H-isoindol-2-yl}phenyl)-3-[(4-methyl-4H-1,2,4-triazol-3-yl)methyl]cyclobutane-1-carbonitrile], the DC50 is below 5 nM and the Dmax is above 70%.
Taken in the same sequence, the figures for `CC1CN(C[C@H]2CC[C@H](OC3CCN(c4ccc5c(c4)n(C(C)C)c(=O)n5C4CCC(=O)NC4=O)CC3)CC2)CCN1Cc1cc2c(c(C(F)(F)F)c1)CN(c1cccc(C3(Cc4nncn4C)CC(C#N)C3)c1)C2=O` (stereo partly drawn) [Example 245, (1r**,3r**)-3-(3-{6-[(2-methyl-4-{[(1r*,4r*)-4-({1-[1-(2,6-dioxopiperidin-3-yl)-2-oxo-3-(propan-2-yl)-2,3-dihydro-1H-1,3-benzodiazol-5-yl]piperidin-4-yl}oxy)cyclohexyl]methyl}piperazin-1-yl)methyl]-1-oxo-4-(trifluoromethyl)-2,3-dihydro-1H-isoindol-2-yl}phenyl)-3-[(4-methyl-4H-1,2,4-triazol-3-yl)methyl]cyclobutane-1-carbonitrile] were below 5 nM and above 70%.
As to `Cn1cnnc1CC1(c2cccc(N3Cc4c(cc(CN5CCN(c6ccc7c(c6)CN(C6CCC(=O)NC6=O)C7=O)CC5)cc4C(F)(F)F)C3=O)c2)COC1` (stereo not drawn) [Example 41, 3-[5-(4-{[2-(3-{3-[(4-methyl-4H-1,2,4-triazol-3-yl)methyl]oxetan-3-yl}phenyl)-3-oxo-7-(trifluoromethyl)-2,3-dihydro-1H-isoindol-5-yl]methyl}piperazin-1-yl)-1-oxo-2,3-dihydro-1H-isoindol-2-yl]piperidine-2,6-dione], the DC50 was in the range of 5 to 50 nM and the Dmax is above 70%.
Regarding `Cn1cnnc1CC1(c2cccc(N3Cc4c(cc(CN5CCC(c6ccc7c(c6)CN(C6CCC(=O)NC6=O)C7=O)CC5)cc4C(F)(F)F)C3=O)c2)COC1` (stereo not drawn) [Example 34, 3-[5-(1-{[2-(3-{3-[(4-methyl-4H-1,2,4-triazol-3-yl)methyl]oxetan-3-yl}phenyl)-3-oxo-7-(trifluoromethyl)-2,3-dihydro-1H-isoindol-5-yl]methyl}piperidin-4-yl)-1-oxo-2,3-dihydro-1H-isoindol-2-yl]piperidine-2,6-dione], the DC50 was above 500 nM.
Consider `CC1c2nc(N3CCC(O[C@H]4CC[C@H](CN5CCN(Cc6cc7c(c(C(F)(F)F)c6)CN(c6cccc([C@]8(Cc9nncn9C)C[C@@H](C#N)C8)c6)C7=O)C(C)(C)C5)CC4)CC3)ccc2C(=O)N1C1CCC(=O)NC1=O` (stereo partly drawn) [Example 152, 3-[3-[6-[[4-[[4-[[1-[6-(2,6-dioxo-3-piperidyl)-7-methyl-5-oxo-7H-pyrrolo[3,4-b]pyridin-2-yl]-4-piperidyl]oxy]cyclohexyl]methyl]-2,2-dimethyl-piperazin-1-yl]methyl]-1-oxo-4-(trifluoromethyl)isoindolin-2-yl]phenyl]-3-[(4-methyl-1,2,4-triazol-3-yl)methyl]cyclobutanecarbonitrile], for which the DC50 is below 5 nM and the Dmax fell in the range of 35 to 70%.
As to `Cn1cnnc1CC1(c2cccc(N3Cc4c(cc(CN5CCC(CN6CCN(CC7CCN(c8ccc9c(c8)C(=O)N(C8CCC(=O)NC8=O)C9=O)CC7)CC6)CC5)cc4C(F)(F)F)C3=O)c2)COC1` (stereo not drawn) [Example 46, 2-(2,6-dioxopiperidin-3-yl)-5-[4-({4-[(1-{[2-(3-{3-[(4-methyl-4H-1,2,4-triazol-3-yl)methyl]oxetan-3-yl}phenyl)-3-oxo-7-(trifluoromethyl)-2,3-dihydro-1H-isoindol-5-yl]methyl}piperidin-4-yl)methyl]piperazin-1-yl}methyl)piperidin-1-yl]-2,3-dihydro-1H-isoindole-1,3-dione], the DC50 is above 500 nM.
Consider `Cn1cnnc1CC1(c2cccc(N3Cc4c(cc(CN5CCN(CC6CCN(c7ccc(F)c(C(=O)NC8CCC(=O)NC8=O)c7)CC6)CC5)cc4C(F)(F)F)C3=O)c2)COC1` (stereo not drawn) [Example 54, N-(2,6-dioxopiperidin-3-yl)-2-fluoro-5-{4-[(4-{[2-(3-{3-[(4-methyl-4H-1,2,4-triazol-3-yl)methyl]oxetan-3-yl}phenyl)-3-oxo-7-(trifluoromethyl)-2,3-dihydro-1H-isoindol-5-yl]methyl}piperazin-1-yl)methyl]piperidin-1-yl}benzamide], for which the DC50 is above 500 nM.
On the same count and under the same terms, then `CC(C)n1c(=O)n(C2CCC(=O)NC2=O)c2ccc(N3CCN(Cc4ccc(-c5cc6c(c(C(F)(F)F)c5)CN(c5cccc([C@]7(Cc8nncn8C)C[C@@H](C#N)C7)c5)C6=O)cc4)CC3)cc21` (stereo partly drawn) [Example 295, (1r,3r)-3-(3-{6-[4-({4-[1-(2,6-dioxopiperidin-3-yl)-2-oxo-3-(propan-2-yl)-2,3-dihydro-1H-1,3-benzodiazol-5-yl]piperazin-1-yl}methyl)phenyl]-1-oxo-4-(trifluoromethyl)-2,3-dihydro-1H-isoindol-2-yl}phenyl)-3-[(4-methyl-4H-1,2,4-triazol-3-yl)methyl]cyclobutane-1-carbonitrile], with above 500 nM.
On the same count and under the same terms, as for `Cn1cnnc1CC1(c2cccc(N3Cc4c(cc(CN5CCC(CN6CC7(CCN(c8ccc9c(c8)CN(C8CCC(=O)NC8=O)C9=O)CC7)C6)CC5)cc4C(F)(F)F)C3=O)c2)COC1` (stereo not drawn) [Example 66, 3-(5-{2-[(1-{[2-(3-{3-[(4-methyl-4H-1,2,4-triazol-3-yl)methyl]oxetan-3-yl}phenyl)-3-oxo-7-(trifluoromethyl)-2,3-dihydro-1H-isoindol-5-yl]methyl}piperidin-4-yl)methyl]-2,7-diazaspiro[3.5]nonan-7-yl}-1-oxo-2,3-dihydro-1H-isoindol-2-yl)piperidine-2,6-dione], the figure is above 500 nM.
As for `Cc1cc(N2C[C@@H]3C[C@H]2CN3CC2CCC3(CC2)CN(c2cc4c(c(C(F)(F)F)c2)CN(c2cccc([C@]5(Cc6nncn6C)C[C@@H](C#N)C5)c2)C4=O)C3)c(F)c2c1C(=O)N(C1CCC(=O)NC1=O)C2` (stereo partly drawn) [Example 271, (1r,3r)-3-{3-[6-(7-{[(1S,4S)-5-[2-(2,6-dioxopiperidin-3-yl)-4-fluoro-7-methyl-1-oxo-2,3-dihydro-1H-isoindol-5-yl]-2,5-diazabicyclo[2.2.1]heptan-2-yl]methyl}-2-azaspiro[3.5]nonan-2-yl)-1-oxo-4-(trifluoromethyl)-2,3-dihydro-1H-isoindol-2-yl]phenyl}-3-[(4-methyl-4H-1,2,4-triazol-3-yl)methyl]cyclobutane-1-carbonitrile], the DC50 lay within 5 to 50 nM and the Dmax was in the range of 35 to 70%.
Take `Cn1cnnc1CC1(c2cccc(-n3cc4ccc(N5CC6(CCN(CC7CCN(c8ccc9c(c8Cl)CN(C8CCC(=O)NC8=O)C9=O)CC7)CC6)C5)cc4n3)c2)COC1` (stereo not drawn) [Example 260, 3-{4-chloro-5-[4-({2-[2-(3-{3-[(4-methyl-4H-1,2,4-triazol-3-yl)methyl]oxetan-3-yl}phenyl)-2H-indazol-6-yl]-2,7-diazaspiro[3.5]nonan-7-yl}methyl)piperidin-1-yl]-1-oxo-2,3-dihydro-1H-isoindol-2-yl}piperidine-2,6-dione]: the DC50 was above 500 nM.
`Cn1cnnc1C[C@]1(c2cccc(N3Cc4c(cc(CN5CCN(C[C@H]6CC[C@H](OC7CCN(c8ccc9c(c8F)CN(C8CCC(=O)NC8=O)C9=O)CC7)CC6)CC5)cc4C(F)(F)F)C3=O)c2)C[C@@H](C#N)C1` (stereo partly drawn) [Example 14, (1s, 3s)-3-[(4-methyl-4H-1,2,4-triazol-3-yl)methyl]-3-(3-{1-oxo-6-[(4-{[(1r, 4r)-4-({1-[2-(2,6-dioxopiperidin-3-yl)-4-fluoro-1-oxo-2,3-dihydro-1H-isoindol-5-yl]piperidin-4-yl}oxy)cyclohexyl]methyl}piperazin-1-yl)methyl]-4-(trifluoromethyl)-2,3-dihydro-1H-isoindol-2-yl}phenyl)cyclobutane-1-carbonitrile]: the DC50 is below 5 nM and the Dmax was 35 to 70%.
Taken in the same sequence, the figures for `C[C@@H]1C[C@H](CN2CCC(CN3CCC(CN4CCN(c5ccc6c(c5)C(=O)N(C5CCC(=O)NC5=O)C6=O)CC4)CC3)CC2)CN(c2cc3c(c(C(F)(F)F)c2)CN(c2cccc(C4(Cc5nncn5C)COC4)c2)C3=O)C1` (stereo partly drawn) [Example 73, 2-(2,6-dioxopiperidin-3-yl)-5-[4-({1-[(1-{[(3R,5R)-5-methyl-1-[2-(3-{3-[(4-methyl-4H-1,2,4-triazol-3-yl)methyl]oxetan-3-yl}phenyl)-3-oxo-7-(trifluoromethyl)-2,3-dihydro-1H-isoindol-5-yl]piperidin-3-yl]methyl}piperidin-4-yl)methyl]piperidin-4-yl}methyl)piperazin-1-yl]-2,3-dihydro-1H-isoindole-1,3-dione] were 5 to 50 nM and 35 to 70%.

These data come from patent publication US20260184710A1, “CASITAS B-LINEAGE LYMPHOMA PROTOONCOGENE B (CBL-B) DEGRADING COMPOUNDS AND ASSOCIATED METHODS OF USE” (Arvinas Operations, Inc., priority 2022, published 2026).
